Reference: patent US20050112573A1, “Method of detecting toxic substance” (priority 2001, published 2005)

Tested on: yeast genes (level of expressed mRNA)
Test: DNA chip analysis of expressed mRNA of yeast genes after 2 h culture with a toxic chemical substance
Format: cell-based, Saccharomyces cerevisiae S288C
Experimental: Yeast (Saccharomyces cerevtisiae S288C (α SUC2mal mel gap2 CUP1)) were cultured at 25° C. on YPD medium (yeast extract 1%, polypepton 2%, glucose 2%). One of toxic chemical substances was added to the cell at logarithmic growth phase, and the cell was further cultured for two hours. Cell was cultured without any chemical substance in the same condition, and was used as control. Concentrations of the chemical substances were defined to inhibit the growth of the yeast but not lead to death.
After the completion of cultivation, the culture was centrifuged to collect the cells. To the cells, sodium acetate buffer (50 mM sodium acetate, 10 mM EDTA, 1% SDS) was added, and the mixture was shaken at 65° C. for five minutes, followed by returning to room temperature, and obtaining the supernatant, which procedure was repeated two times. To the supernatant, ½ amount of a solution of phenol/chloroform was added, and the mixture was centrifuged to give a supernatant, which was added with an equal amount of chloroform, and the mixture was centrifuged to give a supernatant. To the supernatant, an equal amount of isopropanol containing 0.3 M sodium acetate was added, and the mixture was allowed to stand at room temperature for 30 minutes, after which the mixture was centrifuged to give a sediment of the whole RNAs. Seventy % ethanol was added to the sediment, and the mixture was again centrifuged to give a sediment, which was then dried and dissolved in water. mRNA was isolated from the whole RNAs as followings. In view of the fact that a poly A chain is attached to the 3′ terminus of mRNA, a polynucleotide having a poly T structure which was immobilized on the surface of latex beads was used to trap the mRNA, and then the mRNA was washed and eluted with spine column (Oligotex-dT30<Super>mRNA Purification Kit, Takara). Reverse transcription of the mRNA was conducted with a reverse transcriptase (Super Script II Reverse Transcriptase; catalogue No. 18064-014, GibcoBRL) using fluorescence-labeled nucleotides to give cDNAs that were introduced with Cy3-dUTP or Cy5-dUTP during the reverse transcription.
The labeled cDNAs were dissolved in TE buffer (10 mM Tris-HCl/1 mM EDTA, pH8.0), and the solution was dropped on the DNA chip containing the whole genes of yeast (DNA Chip Research Inc. Japan) so that the cDNAs were hybridized on the DNA chip at 65° C. for over 12 hours. The fluoresces intensity of the DNA chip was read with a scanner, and the ratio relative to the fluorescence intensity resulting from the absence of chemical substance was estimated as the following, which is shown in Tables 1 to 9: [formula]
In the Tables, “Intensity” indicated in the rightmost column is a value of the level of expressed mRNA of each gene in control cells as divided by the average level of the expressions of the whole genes.

COc1cc(CNC(=O)CCCCC=CC(C)C)ccc1O [(12), 8-methyl-N-vanillyl-6-nonenamide]
The level of expressed mRNA in the presence of chemical substance/absence: YDR133C (gene YDR133C): 0.3
The level of expressed mRNA in the presence of chemical substance/absence: YDR140W (gene YDR140W): 1.1
The level of expressed mRNA in the presence of chemical substance/absence: YDR221W (gene YDR221W): 0.6
The level of expressed mRNA in the presence of chemical substance/absence: YDR250C (gene YDR250C): 0.8
The level of expressed mRNA in the presence of chemical substance/absence: YDR271C (gene YDR271C): 0.7
The level of expressed mRNA in the presence of chemical substance/absence: YDR278C (gene YDR278C): 0.6
The level of expressed mRNA in the presence of chemical substance/absence: YDR281C (gene YDR281C): 0.9
The level of expressed mRNA in the presence of chemical substance/absence: YDR316W (gene YDR316W): 0.6
The level of expressed mRNA in the presence of chemical substance/absence: YDR338C (gene YDR338C): 0.8
The level of expressed mRNA in the presence of chemical substance/absence: YDR366C (gene YDR366C): 0.6
level of expressed mRNA in the presence of chemical substance/in its absence (gene YDR380W): 0.4
level of expressed mRNA in the presence of chemical substance/in its absence (gene YDR410C): 0.9
The level of expressed mRNA in the presence of chemical substance/absence: YDR421W (gene YDR421W): 0.7
The level of expressed mRNA in the presence of chemical substance/absence: YDR425W (gene YDR425W): 1.1
The level of expressed mRNA in the presence of chemical substance/absence: YDR485C (gene YDR485C): 0.9
level of expressed mRNA in the presence of chemical substance/in its absence (gene YDR487C): 1.3
level of expressed mRNA in the presence of chemical substance/in its absence (gene YDR502C): 1.3
The level of expressed mRNA in the presence of chemical substance/absence: YDR504C (gene YDR504C): 0.7
level of expressed mRNA in the presence of chemical substance/in its absence (gene YEL011W): 1.5
level of expressed mRNA in the presence of chemical substance/in its absence (gene YEL020C): 0.8
The level of expressed mRNA in the presence of chemical substance/absence: YEL044W (gene YEL044W): 0.6
level of expressed mRNA in the presence of chemical substance/in its absence (gene YER026C): 1.7
level of expressed mRNA in the presence of chemical substance/in its absence (gene YER069W): 0.8
The level of expressed mRNA in the presence of chemical substance/absence: YER092W (gene YER092W): 0.9
The level of expressed mRNA in the presence of chemical substance/absence: YER182W (gene YER182W): 1.0
The level of expressed mRNA in the presence of chemical substance/absence: YFL042C (gene YFL042C): 0.9
level of expressed mRNA in the presence of chemical substance/in its absence (gene YFR015C): 0.4
The level of expressed mRNA in the presence of chemical substance/absence: YFR026C (gene YFR026C): 0.6
The level of expressed mRNA in the presence of chemical substance/absence: YFR056C (gene YFR056C): 0.5
level of expressed mRNA in the presence of chemical substance/in its absence (gene YGL001C): 0.9
level of expressed mRNA in the presence of chemical substance/in its absence (gene YGL022W): 0.7
level of expressed mRNA in the presence of chemical substance/in its absence (gene YGL039W): 1.3
The level of expressed mRNA in the presence of chemical substance/absence: YGL041C (gene YGL041C): 0.6
The level of expressed mRNA in the presence of chemical substance/absence: YGL045W (gene YGL045W): 1.1
The level of expressed mRNA in the presence of chemical substance/absence: YGL057C (gene YGL057C): 1.1
The level of expressed mRNA in the presence of chemical substance/absence: YGL088W (gene YGL088W): 0.6
level of expressed mRNA in the presence of chemical substance/in its absence (gene YGL104C): 1.1
level of expressed mRNA in the presence of chemical substance/in its absence (gene YGL126W): 0.6
level of expressed mRNA in the presence of chemical substance/in its absence (gene YGL134W): 0.9
level of expressed mRNA in the presence of chemical substance/in its absence (gene YGL154C): 0.9
The level of expressed mRNA in the presence of chemical substance/absence: YGL183C (gene YGL183C): 0.9
level of expressed mRNA in the presence of chemical substance/in its absence (gene YGL209W): 1.3
The level of expressed mRNA in the presence of chemical substance/absence: YGL223C (gene YGL223C): 0.9
level of expressed mRNA in the presence of chemical substance/in its absence (gene YGL253W): 1.2
The level of expressed mRNA in the presence of chemical substance/absence: YGR038W (gene YGR038W): 1.0
level of expressed mRNA in the presence of chemical substance/in its absence (gene YGR060W): 1.0
The level of expressed mRNA in the presence of chemical substance/absence: YGR139W (gene YGR139W): 0.5
The level of expressed mRNA in the presence of chemical substance/absence: YGR156W (gene YGR156W): 1.2
The level of expressed mRNA in the presence of chemical substance/absence: YGR198W (gene YGR198W): 0.7
The level of expressed mRNA in the presence of chemical substance/absence: YGR210C (gene YGR210C): 0.6
The level of expressed mRNA in the presence of chemical substance/absence: YGR211W (gene YGR211W): 0.6
The level of expressed mRNA in the presence of chemical substance/absence: YGR237C (gene YGR237C): 0.8
The level of expressed mRNA in the presence of chemical substance/absence: YGR243W (gene YGR243W): 1.2
The level of expressed mRNA in the presence of chemical substance/absence: YGR250C (gene YGR250C): 0.6
The level of expressed mRNA in the presence of chemical substance/absence: YGR266W (gene YGR266W): 0.6
The level of expressed mRNA in the presence of chemical substance/absence: YGR277C (gene YGR277C): 0.9
level of expressed mRNA in the presence of chemical substance/in its absence (gene YGR282C): 1.3
The level of expressed mRNA in the presence of chemical substance/absence: YGR293C (gene YGR293C): 1.0
